According to ChEMBL document CHEMBL5335866, “Structure-Based Optimization of Selective and Brain Penetrant CK1δ Inhibitors for the Treatment of Circadian Disruptions” (ACS Med Chem Lett, 2024):
Values after ≈ are worked out from the molar mass of the structure shown.

Assays:
[1] = molecular target: Epithelial discoidin domain-containing receptor 1 (Homo sapiens) (UniProt Q08345); assay: Inhibition of DDR1 (unknown origin) at 1 uM by radiometric assay relative to control
[2] = molecular target: Mitogen-activated protein kinase kinase kinase 20 (Homo sapiens) (UniProt Q9NYL2); assay: Inhibition of ZAK (unknown origin) at 1 uM by radiometric assay relative to control
Sequence of Mitogen-activated protein kinase kinase kinase 20 (Homo sapiens) (Q9NYL2 2-800 limits assumed): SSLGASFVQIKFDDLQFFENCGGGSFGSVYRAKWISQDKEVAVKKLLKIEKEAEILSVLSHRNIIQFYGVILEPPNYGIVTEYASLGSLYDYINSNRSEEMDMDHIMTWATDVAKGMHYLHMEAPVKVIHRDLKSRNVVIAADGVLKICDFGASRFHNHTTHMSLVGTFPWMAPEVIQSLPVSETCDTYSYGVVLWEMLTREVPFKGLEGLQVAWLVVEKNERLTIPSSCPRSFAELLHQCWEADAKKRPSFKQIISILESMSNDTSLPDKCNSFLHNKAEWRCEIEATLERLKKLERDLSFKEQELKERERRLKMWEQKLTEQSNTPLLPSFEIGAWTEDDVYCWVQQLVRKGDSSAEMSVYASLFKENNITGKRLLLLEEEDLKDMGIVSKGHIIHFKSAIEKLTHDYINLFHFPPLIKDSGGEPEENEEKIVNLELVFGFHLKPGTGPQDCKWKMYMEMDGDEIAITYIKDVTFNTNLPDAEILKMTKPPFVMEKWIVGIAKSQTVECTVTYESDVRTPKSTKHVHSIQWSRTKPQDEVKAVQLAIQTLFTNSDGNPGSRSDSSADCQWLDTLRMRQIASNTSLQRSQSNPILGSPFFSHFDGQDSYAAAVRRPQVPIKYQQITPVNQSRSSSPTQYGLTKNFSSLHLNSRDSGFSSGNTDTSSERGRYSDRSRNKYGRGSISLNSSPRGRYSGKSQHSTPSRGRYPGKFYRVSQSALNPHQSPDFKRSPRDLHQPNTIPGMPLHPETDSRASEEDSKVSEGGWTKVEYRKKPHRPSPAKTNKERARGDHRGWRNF

[3] = molecular target: Citron Rho-interacting kinase (Homo sapiens) (UniProt O14578); assay: Inhibition of CRIK (unknown origin) at 1 uM by radiometric assay relative to control
[4] = molecular target: T1, TGF-beta receptor type-1 (Homo sapiens) (UniProt P36897); assay: Inhibition of TGFBR1 (unknown origin) at 1 uM by radiometric assay relative to control
T1 sequence (whole entry): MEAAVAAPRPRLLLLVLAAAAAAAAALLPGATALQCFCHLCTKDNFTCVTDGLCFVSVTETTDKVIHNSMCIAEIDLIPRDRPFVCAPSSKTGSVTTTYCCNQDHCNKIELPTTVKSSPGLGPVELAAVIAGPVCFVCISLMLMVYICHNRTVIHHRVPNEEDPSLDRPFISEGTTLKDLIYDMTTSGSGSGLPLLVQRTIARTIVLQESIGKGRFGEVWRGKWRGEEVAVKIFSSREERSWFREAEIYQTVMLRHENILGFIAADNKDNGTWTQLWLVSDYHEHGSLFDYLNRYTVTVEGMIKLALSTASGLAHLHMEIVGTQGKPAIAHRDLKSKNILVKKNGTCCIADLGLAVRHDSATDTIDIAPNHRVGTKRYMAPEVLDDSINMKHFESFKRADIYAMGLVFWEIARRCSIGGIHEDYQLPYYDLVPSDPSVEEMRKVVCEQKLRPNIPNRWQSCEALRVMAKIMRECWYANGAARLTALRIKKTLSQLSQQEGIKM

[5] = molecular target: Receptor-interacting serine/threonine-protein kinase 2 (Homo sapiens) (UniProt O43353); assay: Inhibition of RIPK2 (unknown origin) at 1 uM by radiometric assay relative to control
Sequence of Receptor-interacting serine/threonine-protein kinase 2 (Homo sapiens) (O43353 whole entry): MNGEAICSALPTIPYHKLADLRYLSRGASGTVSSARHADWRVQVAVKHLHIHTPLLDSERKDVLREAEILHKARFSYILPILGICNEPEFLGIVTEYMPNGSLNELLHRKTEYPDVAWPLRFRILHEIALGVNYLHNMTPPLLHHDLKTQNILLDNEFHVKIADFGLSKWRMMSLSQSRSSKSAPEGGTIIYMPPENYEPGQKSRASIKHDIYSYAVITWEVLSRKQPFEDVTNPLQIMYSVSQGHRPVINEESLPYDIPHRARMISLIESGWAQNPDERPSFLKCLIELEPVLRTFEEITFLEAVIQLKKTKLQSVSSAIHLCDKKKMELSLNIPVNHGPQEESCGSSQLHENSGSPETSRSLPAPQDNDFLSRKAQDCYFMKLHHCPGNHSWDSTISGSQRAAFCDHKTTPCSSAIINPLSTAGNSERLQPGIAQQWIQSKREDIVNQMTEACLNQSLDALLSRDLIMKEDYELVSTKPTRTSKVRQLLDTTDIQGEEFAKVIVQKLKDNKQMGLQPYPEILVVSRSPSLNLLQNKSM

[6] = molecular target: T2, Serine/threonine-protein kinase NLK (Homo sapiens) (UniProt Q9UBE8); assay: Inhibition of NLK (unknown origin) at 1 uM by radiometric assay relative to control
T2 sequence (whole entry): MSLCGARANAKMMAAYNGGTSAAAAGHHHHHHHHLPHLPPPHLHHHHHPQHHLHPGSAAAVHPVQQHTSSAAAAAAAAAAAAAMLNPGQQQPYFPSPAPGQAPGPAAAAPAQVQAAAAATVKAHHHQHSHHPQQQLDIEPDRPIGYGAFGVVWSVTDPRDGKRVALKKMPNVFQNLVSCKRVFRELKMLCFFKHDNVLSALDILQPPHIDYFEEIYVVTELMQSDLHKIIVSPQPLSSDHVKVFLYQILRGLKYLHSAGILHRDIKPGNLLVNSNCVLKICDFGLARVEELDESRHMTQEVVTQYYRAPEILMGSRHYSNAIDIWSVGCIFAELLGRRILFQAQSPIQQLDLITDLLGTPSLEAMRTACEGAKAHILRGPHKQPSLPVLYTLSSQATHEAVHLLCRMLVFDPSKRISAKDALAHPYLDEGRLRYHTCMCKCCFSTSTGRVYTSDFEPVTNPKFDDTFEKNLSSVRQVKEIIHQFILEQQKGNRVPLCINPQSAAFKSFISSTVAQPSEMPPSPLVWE

[7] = molecular target: Mitogen-activated protein kinase 14 (Homo sapiens, UniProt Q16539); assay: Inhibition of p38 alpha (unknown origin)
Sequence of Mitogen-activated protein kinase 14 (Q16539 whole entry): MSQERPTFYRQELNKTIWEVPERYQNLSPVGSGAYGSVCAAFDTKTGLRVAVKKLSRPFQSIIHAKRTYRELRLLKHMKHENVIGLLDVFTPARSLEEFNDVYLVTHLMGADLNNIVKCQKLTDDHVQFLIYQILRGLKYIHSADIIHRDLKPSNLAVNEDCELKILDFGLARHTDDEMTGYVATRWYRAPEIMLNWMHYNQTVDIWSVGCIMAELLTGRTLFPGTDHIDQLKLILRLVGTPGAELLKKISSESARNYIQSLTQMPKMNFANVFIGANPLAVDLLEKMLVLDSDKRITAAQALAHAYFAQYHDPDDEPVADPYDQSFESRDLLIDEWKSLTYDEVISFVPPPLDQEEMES

[8] = molecular target: T3, Dual specificity mitogen-activated protein kinase kinase 3 (Homo sapiens) (UniProt P46734); assay: Inhibition of MKK3 (unknown origin) at 1 uM by radiometric assay relative to control
T3 sequence (whole entry): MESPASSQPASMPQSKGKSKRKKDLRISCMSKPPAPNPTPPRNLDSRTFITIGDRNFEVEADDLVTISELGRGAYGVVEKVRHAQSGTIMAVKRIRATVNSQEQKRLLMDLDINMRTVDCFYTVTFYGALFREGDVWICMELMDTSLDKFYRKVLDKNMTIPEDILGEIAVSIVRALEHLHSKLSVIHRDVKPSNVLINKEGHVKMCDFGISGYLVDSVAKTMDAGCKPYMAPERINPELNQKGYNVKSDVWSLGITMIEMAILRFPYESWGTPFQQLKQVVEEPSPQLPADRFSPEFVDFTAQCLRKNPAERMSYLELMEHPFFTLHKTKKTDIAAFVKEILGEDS

[9] = molecular target: TRAF2 and NCK-interacting protein kinase (Homo sapiens, UniProt Q9UKE5); assay: Inhibition of TNIK (unknown origin) at 1 uM by radiometric assay relative to control
Sequence of TRAF2 and NCK-interacting protein kinase (Q9UKE5 whole entry, looked up, canonical isoform): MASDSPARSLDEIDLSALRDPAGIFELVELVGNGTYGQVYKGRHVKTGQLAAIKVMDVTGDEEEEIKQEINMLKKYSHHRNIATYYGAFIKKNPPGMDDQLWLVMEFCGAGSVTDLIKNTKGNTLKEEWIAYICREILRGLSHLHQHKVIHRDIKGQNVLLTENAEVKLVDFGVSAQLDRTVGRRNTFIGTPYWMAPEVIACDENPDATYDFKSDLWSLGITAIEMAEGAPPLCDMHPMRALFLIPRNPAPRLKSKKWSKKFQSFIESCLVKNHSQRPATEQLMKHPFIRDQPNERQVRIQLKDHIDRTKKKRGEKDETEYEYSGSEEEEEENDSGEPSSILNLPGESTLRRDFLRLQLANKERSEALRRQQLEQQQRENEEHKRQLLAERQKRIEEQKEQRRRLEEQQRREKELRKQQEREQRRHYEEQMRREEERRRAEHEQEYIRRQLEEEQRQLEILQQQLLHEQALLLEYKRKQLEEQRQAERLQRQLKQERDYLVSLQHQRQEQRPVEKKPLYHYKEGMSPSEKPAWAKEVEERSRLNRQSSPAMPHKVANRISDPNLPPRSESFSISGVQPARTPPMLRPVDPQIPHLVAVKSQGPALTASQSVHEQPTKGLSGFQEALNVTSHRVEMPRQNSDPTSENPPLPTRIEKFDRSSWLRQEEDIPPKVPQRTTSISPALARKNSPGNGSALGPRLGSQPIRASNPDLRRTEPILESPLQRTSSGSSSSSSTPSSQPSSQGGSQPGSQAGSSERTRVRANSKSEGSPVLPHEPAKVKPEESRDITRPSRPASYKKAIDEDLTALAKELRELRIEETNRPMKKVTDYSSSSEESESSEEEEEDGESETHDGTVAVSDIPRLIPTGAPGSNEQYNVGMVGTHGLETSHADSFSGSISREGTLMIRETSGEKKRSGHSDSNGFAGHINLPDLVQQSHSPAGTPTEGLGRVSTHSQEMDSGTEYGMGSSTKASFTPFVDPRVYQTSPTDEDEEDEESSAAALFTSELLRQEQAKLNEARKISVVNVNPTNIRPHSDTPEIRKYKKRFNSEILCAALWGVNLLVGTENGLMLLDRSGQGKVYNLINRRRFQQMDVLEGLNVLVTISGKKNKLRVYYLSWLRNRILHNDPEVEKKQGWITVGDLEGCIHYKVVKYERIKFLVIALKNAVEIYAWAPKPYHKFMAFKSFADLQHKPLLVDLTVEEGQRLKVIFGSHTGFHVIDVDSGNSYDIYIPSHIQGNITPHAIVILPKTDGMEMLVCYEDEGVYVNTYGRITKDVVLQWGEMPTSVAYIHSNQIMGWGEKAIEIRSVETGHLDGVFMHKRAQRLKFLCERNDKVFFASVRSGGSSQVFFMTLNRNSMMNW

[10] = molecular target: T4, Casein kinase I isoform delta (Homo sapiens, UniProt P48730); assay: Displacement of kinase tracer 8 from NanoLuc-tagged CK1 delta (unknown origin) transfected in CHO cells by BRET assay; assay type: cell-based
T4 sequence (P48730 whole entry, canonical isoform): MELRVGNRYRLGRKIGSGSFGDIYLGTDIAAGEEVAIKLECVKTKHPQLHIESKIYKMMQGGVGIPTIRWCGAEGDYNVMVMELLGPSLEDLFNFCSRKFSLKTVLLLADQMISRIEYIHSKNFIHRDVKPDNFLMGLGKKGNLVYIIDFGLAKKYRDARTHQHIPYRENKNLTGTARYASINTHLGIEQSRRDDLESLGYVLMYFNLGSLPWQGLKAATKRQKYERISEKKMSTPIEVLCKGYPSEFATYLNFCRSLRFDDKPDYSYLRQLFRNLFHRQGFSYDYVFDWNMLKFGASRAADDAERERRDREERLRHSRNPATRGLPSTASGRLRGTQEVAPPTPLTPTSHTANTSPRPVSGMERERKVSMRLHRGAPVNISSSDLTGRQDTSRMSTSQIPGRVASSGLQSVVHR

[11] = test system: MDR1; assay: Efflux ratio of apparent permeability across basal to apical side over apical to basal side in MDCK cells expressing MDR1 at 5 uM incubated for 60 mins by LC/MS/MS analysis; assay type: ADME, cell-based, Canis lupus familiaris, MDCK1; details: dog
[12] = Intrinsic clearance in human liver microsomes at 1 uM preincubated for 5 mins followed by NADPH addition measured for 60 mins by LC-MS/MS analysis; assay type: ADME, Microsome; details: time 65 min, read-out: CLH
[13] = Clearance in Sprague-Dawley rat at 1 mg/kg, iv measured for 24 hrs by LC-MS/MS analysis; assay type: ADME, organism-based; details: in vivo
[14] = Cmax in Sprague-Dawley rat at 5 mg/kg, po measured for 24 hrs by LC-MS/MS analysis; assay type: ADME, organism-based; set-up: dose 5 mg/kg, time 24 hrs, route po; details: in vivo
[15] = Oral bioavailability in Sprague-Dawley rat at 5 mg/kg measured for 24 hrs by LC-MS/MS analysis; assay type: ADME, organism-based; details: in vivo
[16] = molecular target: T4, Casein kinase I isoform delta; assay: Inhibition of N-terminal GST-tagged recombinant human CK1 delta expressed in Escherichia coli BL21 cells using PLSRTL-pS-VA-pS-LPGL as substrate measured after 60 mins in presence of ATP by ADP-Glo assay
[17] = Apparent permeability across apical to basal side in MDCK cells expressing MDR1 at 5 uM incubated for 60 mins by LC/MS/MS analysis; assay type: ADME, cell-based, Canis lupus familiaris, MDCK1; details: dog
[18] = molecular target: Mitogen-activated protein kinase 11 (Homo sapiens, UniProt Q15759); assay: Inhibition of p38 beta (unknown origin)
Sequence of Mitogen-activated protein kinase 11 (Q15759 whole entry): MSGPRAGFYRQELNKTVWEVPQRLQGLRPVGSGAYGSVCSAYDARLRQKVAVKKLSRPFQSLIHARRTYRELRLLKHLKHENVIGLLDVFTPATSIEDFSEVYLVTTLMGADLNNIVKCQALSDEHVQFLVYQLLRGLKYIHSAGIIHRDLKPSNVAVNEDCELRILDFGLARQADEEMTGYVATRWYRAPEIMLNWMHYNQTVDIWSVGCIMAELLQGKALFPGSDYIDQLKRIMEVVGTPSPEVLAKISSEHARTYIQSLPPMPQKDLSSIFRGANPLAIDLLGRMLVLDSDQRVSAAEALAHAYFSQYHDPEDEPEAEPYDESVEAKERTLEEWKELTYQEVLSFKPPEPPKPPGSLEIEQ

[19] = AUC (infinity) in Sprague-Dawley rat at 5 mg/kg, po measured for 24 hrs by LC-MS/MS analysis; assay type: ADME, organism-based; set-up: time 24 hrs, dose 5 mg/kg, route po; details: in vivo
[20] = Solubility of compound at pH 7 measured for 2 to 5 days by HPLC analysis; assay type: physicochemical; details: buffer, time 2-5 day
[21] = Solubility of compound at pH 2 measured for 2 to 5 days by HPLC analysis; assay type: physicochemical; details: buffer, time 2-5 day
[22] = Half life in Sprague-Dawley rat at 5 mg/kg, po measured for 24 hrs by LC-MS/MS analysis; assay type: ADME, organism-based; details: in vivo
[23] = Volume of distribution at steady state in Sprague-Dawley rat at 1 mg/kg, iv measured for 24 hrs by LC-MS/MS analysis; assay type: ADME, organism-based; details: in vivo, read-out: Vdss
[24] = Intrinsic clearance in rat liver microsomes at 1 uM preincubated for 5 mins followed by NADPH addition measured for 60 mins by LC-MS/MS analysis; assay type: ADME, Microsome; details: time 65 min, read-out: CLH

Sequence of Epithelial discoidin domain-containing receptor 1 (Homo sapiens) (Q08345 whole entry, the tested form may be a part): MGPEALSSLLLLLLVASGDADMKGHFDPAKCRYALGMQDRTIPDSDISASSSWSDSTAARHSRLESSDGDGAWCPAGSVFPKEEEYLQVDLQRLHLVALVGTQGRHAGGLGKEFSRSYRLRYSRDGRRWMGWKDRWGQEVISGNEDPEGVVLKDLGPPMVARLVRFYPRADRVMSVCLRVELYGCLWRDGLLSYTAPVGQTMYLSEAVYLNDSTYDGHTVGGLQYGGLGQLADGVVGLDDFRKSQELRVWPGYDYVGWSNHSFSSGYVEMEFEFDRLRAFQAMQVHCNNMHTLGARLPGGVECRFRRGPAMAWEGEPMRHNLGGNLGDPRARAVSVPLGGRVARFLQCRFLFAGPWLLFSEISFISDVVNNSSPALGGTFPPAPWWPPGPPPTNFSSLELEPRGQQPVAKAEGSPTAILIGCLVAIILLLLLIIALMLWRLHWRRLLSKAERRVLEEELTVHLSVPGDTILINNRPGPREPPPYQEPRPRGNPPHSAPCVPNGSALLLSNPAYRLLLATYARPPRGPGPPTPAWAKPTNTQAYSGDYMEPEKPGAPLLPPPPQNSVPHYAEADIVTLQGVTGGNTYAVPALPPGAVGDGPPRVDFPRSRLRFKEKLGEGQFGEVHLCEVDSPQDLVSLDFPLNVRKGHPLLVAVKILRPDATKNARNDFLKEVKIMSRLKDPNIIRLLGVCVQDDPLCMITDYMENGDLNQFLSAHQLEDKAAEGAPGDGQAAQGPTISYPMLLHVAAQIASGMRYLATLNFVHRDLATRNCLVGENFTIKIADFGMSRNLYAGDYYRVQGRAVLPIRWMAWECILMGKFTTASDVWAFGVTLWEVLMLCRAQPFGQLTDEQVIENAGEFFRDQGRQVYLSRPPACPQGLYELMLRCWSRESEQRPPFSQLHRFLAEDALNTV

Compound	inhibition [1] [%]	inhibition [2] [%]	inhibition [3] [%]	inhibition [4] [%]	inhibition [5] [%]	inhibition [6] [%]	IC50 [7] [nM]	inhibition [8] [%]	inhibition [9] [%]	IC50 [10] [nM]	microsomal CLint at 1 µM [12] [µL/min/mg]	microsomal CLint at 1 µM [24] [µL/min/mg]	further results
Cn1cc(-c2c(C#N)cnc3[nH]ccc23)c(-c2ccc(F)cn2)n1	20	40	9	17	0	17	6200	11	88	–	–	–	–
Fc1ccc(-c2nn3c(c2-c2ccnc4[nH]ncc24)CCC(F)(F)C3)nc1	–	–	–	–	–	–	–	–	–	300	–	–	–
Fc1ccc(-c2nn3c(c2-c2ccnc4[nH]ccc24)COCC3)nc1	6	9	5	59	10	0	4000	44	46	–	–	–	–
Cc1cnc2[nH]ccc2c1-c1cn(C)nc1-c1ccc(F)cn1	21	30	14	8	0	0	3000	19	54	–	–	–	–
Cn1cc(-c2cc(N)nc3[nH]ccc23)c(-c2ccc(F)cn2)n1	8	18	0	8	3	0	> 10000	29	39	–	–	–	–
Fc1ccc(-c2nn3c(c2-c2ccnc(NC4CCOCC4)n2)COCC3)cc1	–	–	–	–	–	–	–	–	–	45	–	–	–

The next lines start with results.

inhibition [1] [%]	inhibition [2] [%]	inhibition [3] [%]	inhibition [4] [%]	inhibition [5] [%]	inhibition [6] [%]	IC50 [7] [nM]	inhibition [8] [%]	inhibition [9] [%]	IC50 [10] [nM]	microsomal CLint at 1 µM [12] [µL/min/mg]	microsomal CLint at 1 µM [24] [µL/min/mg]	Compound	further results
–	–	–	–	–	–	250	–	–	36	9.4	42.2	Cn1cc(-c2ccnc3[nH]ncc23)c(-c2ccc(F)cc2)n1	efflux ratio at 1 h, 5 µM [11]: 3; clearance [13]: 23 mL/min/kg; Cmax [14]: 2400 nM; bioavailability [15]: 70%; IC50 [16]: 1.4 nM; Papp A→B at 1 h, 5 µM [17]: 27.3 ×10⁻⁶ cm/s; IC50 [18]: 780 nM; AUC(0-inf) [19]: 2580 ng·h/mL; solubility [20]: 8.7 µM (≈ 2.55 µg/mL); solubility [21]: 112 µM (≈ 32.9 µg/mL); half-life [22]: 2 h; Vd [23]: 1.6 L/kg
25	20	15	49	39	16	2100	40	84	–	15.1	42.9	CC1(C)Cn2nc(-c3ccc(F)cn3)c(-c3ccnc4[nH]ccc34)c2CO1	–
68	87	54	69	63	83	200	75	85	250	–	–	Cn1cc(-c2ccnc3[nH]c(C(F)(F)F)cc23)c(-c2ccc(F)cn2)n1	–
89	100	80	98	81	74	930	74	60	–	7.7	53.5	Cn1cc(-c2ccnc3[nH]ccc23)c(-c2ccc(F)cn2)n1	clearance [13]: 35 mL/min/kg; Cmax [14]: 1600 nM; bioavailability [15]: 32%; Papp A→B at 1 h, 5 µM [17]: 19.6 ×10⁻⁶ cm/s; IC50 [18]: > 1000 nM; AUC(0-inf) [19]: 755 ng·h/mL; solubility [20]: > 400 µM; solubility [21]: > 400 µM; half-life [22]: 1.3 h; Vd [23]: 0.6 L/kg
–	–	–	–	–	–	140	–	–	–	45	170	Cn1cc(-c2ccnc3[nH]ccc23)c(-c2ccc(F)cc2)n1	efflux ratio at 1 h, 5 µM [11]: 1.02; IC50 [16]: 2.2 nM; Papp A→B at 1 h, 5 µM [17]: 25.9 ×10⁻⁶ cm/s; IC50 [18]: 250 nM; solubility [20]: < 4 µM; solubility [21]: > 400 µM
